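Each compound was tested at five concentrations against cells in 96-well plates for 48 hours. At the GI50, growth is halved.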 Active and inactive are the calls of the source. No stated cut-off is given here; in the data, active = GI50 up to about 1.1 µM and inactive = higher.
Key:
Assay in all cases: growth of human tumour cells (NCI), 48 h
786-0 = tested on: 786-0
A498 = tested on: A498
A549 = tested on: A549
DLD-1 = tested on: DLD-1
HCT-15 = tested on: HCT-15
HOP-18 = tested on: HOP-18
K562 = tested on: K562
KM12 = tested on: KM12
LXFL 529 = tested on: LXFL 529
Malme-3M = tested on: Malme-3M
OVCAR-8 = tested on: OVCAR-8
SK-MEL-28 = tested on: SK-MEL-28
SK-MEL-5 = tested on: SK-MEL-5
SW-620 = tested on: SW-620
TK-10 = tested on: TK-10
UACC-62 = tested on: UACC-62

Measured: GI50

C1CN2CCN3CCN4CCN1[PH]243
inactive: 786-0 > 100 µM | A498 > 100 µM | A549 > 100 µM | DLD-1 > 100 µM | HOP-18 > 100 µM | K562 > 100 µM | KM12 > 100 µM | LXFL 529 > 100 µM | Malme-3M > 100 µM | OVCAR-8 > 100 µM | SK-MEL-28 > 100 µM | SK-MEL-5 > 100 µM | SW-620 > 100 µM | TK-10 > 100 µM | UACC-62 > 100 µM
> 100 µM: HCT-15

CN(C)CCCNC(=O)c1cccc2nc3ccccc3nc12
inactive: 786-0 51.1 µM | A498 16 µM | A549 12.2 µM | DLD-1 > 41.6 µM | HOP-18 > 42.5 µM | K562 7.46 µM | KM12 13.5 µM | LXFL 529 20.2 µM | Malme-3M 4.42 µM | OVCAR-8 12.6 µM | SK-MEL-28 19.2 µM | SK-MEL-5 > 54 µM | SW-620 8.13 µM | TK-10 27.7 µM | UACC-62 24.1 µM
15.2 µM: HCT-15

O=C(/C=C/c1ccc(Cl)c(Cl)c1)c1ccc(F)cc1
10.2 µM: HCT-15
inactive: 786-0 15.5 µM | A498 50.9 µM | A549 42.8 µM | DLD-1 14.4 µM | HOP-18 16.9 µM | K562 4.33 µM | KM12 8.65 µM | LXFL 529 14.6 µM | Malme-3M 34.3 µM | OVCAR-8 16.7 µM | SK-MEL-28 18.6 µM | SK-MEL-5 19.9 µM | SW-620 2.05 µM | TK-10 25.4 µM | UACC-62 14.7 µM

CCCCCCNC(=O)CCN(C(=O)O)S(=O)(=O)c1ccc(NC(=O)c2ccccc2)cc1
22 µM: HCT-15
inactive: 786-0 > 96.4 µM | A498 > 100 µM | A549 > 45.7 µM | DLD-1 19.1 µM | HOP-18 > 100 µM | K562 > 48.2 µM | KM12 > 57.4 µM | LXFL 529 > 95.9 µM | Malme-3M > 100 µM | OVCAR-8 > 61.2 µM | SK-MEL-28 > 100 µM | SK-MEL-5 > 100 µM | SW-620 14.2 µM | TK-10 > 100 µM | UACC-62 > 44.6 µM

Cc1ccc(CCNC(=S)SCC(NC(=O)CCC(N)C(=O)O)C(=O)NCC(=O)O)cc1 (centres undefined)
1.43 µM: HCT-15
active: 786-0 0.385 µM | DLD-1 0.764 µM | K562 0.398 µM | KM12 0.533 µM | LXFL 529 0.75 µM | SW-620 0.767 µM
inactive: A498 2.03 µM | A549 3.57 µM | HOP-18 2.52 µM | Malme-3M 2.01 µM | OVCAR-8 2 µM | SK-MEL-28 2.75 µM | SK-MEL-5 1.73 µM | TK-10 2.84 µM | UACC-62 1.41 µM

CN(C)CC1CC/C(=C\c2ccc(Cl)c(Cl)c2)C1=O (centres undefined)
inactive: 786-0 11.7 µM | A498 30.2 µM | A549 > 100 µM | DLD-1 16 µM | HOP-18 > 62.4 µM | K562 5.58 µM | KM12 11.5 µM | LXFL 529 13.2 µM | Malme-3M > 62.5 µM | OVCAR-8 25.6 µM | SK-MEL-28 39.3 µM | SK-MEL-5 45.7 µM | SW-620 24.3 µM | TK-10 13.2 µM | UACC-62 17.6 µM
12.7 µM: HCT-15

Cn1c2c(c3ccccc31)C1CCCCC1C1C(=O)NC(=O)C21 (centres undefined)
68.9 µM: HCT-15
inactive: 786-0 65 µM | A498 22.5 µM | A549 43.3 µM | DLD-1 51.3 µM | HOP-18 33.4 µM | K562 40.6 µM | KM12 54.3 µM | LXFL 529 > 100 µM | Malme-3M 32.1 µM | OVCAR-8 66.2 µM | SK-MEL-28 88.9 µM | SK-MEL-5 45 µM | SW-620 52 µM | TK-10 > 100 µM | UACC-62 > 100 µM

COCOCCC#CCO
> 100 µM: HCT-15
inactive: 786-0 > 100 µM | A498 > 100 µM | A549 > 100 µM | DLD-1 > 100 µM | HOP-18 > 100 µM | K562 > 100 µM | KM12 > 100 µM | LXFL 529 83.6 µM | Malme-3M > 100 µM | OVCAR-8 > 100 µM | SK-MEL-28 > 100 µM | SK-MEL-5 72.8 µM | SW-620 > 100 µM | TK-10 > 100 µM | UACC-62 > 100 µM

CC1C(O)=C(O)c2ccccc2N1O (centres undefined)
96.6 µM: HCT-15
inactive: 786-0 > 100 µM | A498 > 100 µM | A549 > 100 µM | DLD-1 > 100 µM | HOP-18 93.8 µM | K562 38.7 µM | KM12 > 100 µM | LXFL 529 > 100 µM | Malme-3M > 100 µM | OVCAR-8 > 100 µM | SK-MEL-28 > 100 µM | SK-MEL-5 > 100 µM | SW-620 98.9 µM | TK-10 > 100 µM | UACC-62 > 100 µM

Source: ChEMBL document CHEMBL1201862, “PubChem BioAssay data set” (2004)
